Literature values as cited in PMC5760531, “Action Potential Recording and Pro-arrhythmia Risk Analysis in Human Ventricular Trabeculae” (Frontiers in Physiology, 2018).

Test system: hERG
Details: read-out: IC50 for hERG; previous experiments; ref Qu and Vargas, 2015; cited from earlier work

In the case of `Nc1nnc(-c2cccc(Cl)c2Cl)c(N)n1` [LAMOTRIGINE, Lamotrigine], the IC50 is given as 110 µM.
